Results as given in ChEMBL document CHEMBL1201862, “PubChem BioAssay data set” (2004).
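The compound was tested at five concentrations on cells cultured in 96-well plates, with a 48-hour exposure period. GI50 is the concentration that inhibits growth by half.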 Activity calls are given as the source filed them. Rule as the data show it: active = GI50 up to about 1.1 µM and inactive = higher.

Assays:
Assay in all cases: NCI-60 cell line screen, 48 h
UO-31 = tested on: UO-31
OVCAR-4 = tested on: OVCAR-4
DU-145 = tested on: DU-145
PC-3 = tested on: PC-3
786-0 = tested on: 786-0
UACC-257 = tested on: UACC-257
SK-MEL-5 = tested on: SK-MEL-5
Malme-3M = tested on: Malme-3M
SF-268 = tested on: SF-268
HL-60 = tested on: HL-60
SK-OV-3 = tested on: SK-OV-3
OVCAR-8 = tested on: OVCAR-8
M14 = tested on: M14
NCI-H460 = tested on: NCI-H460
HT-29 = tested on: HT-29
OVCAR-3 = tested on: OVCAR-3
MDA-MB-231 = tested on: MDA-MB-231
SNB-75 = tested on: SNB-75
A498 = tested on: A498
MDA-MB-435 = tested on: MDA-MB-435

Measured: GI50

CN1CN(c2ccccc2)C2(CCN(CCCSc3ccccc3NC(=O)/C=C/c3ccccc3)CC2)C1=O
inactive: UO-31 2.99 µM | OVCAR-4 3.59 µM | DU-145 3.82 µM | PC-3 5.45 µM | 786-0 7.03 µM | UACC-257 1.78 µM | SK-MEL-5 3.55 µM | Malme-3M 2.15 µM | SF-268 4.21 µM | HL-60 3.95 µM | SK-OV-3 5.92 µM | OVCAR-8 6.19 µM | M14 1.71 µM | NCI-H460 4.05 µM | HT-29 2.29 µM | OVCAR-3 3.18 µM | MDA-MB-231 1.73 µM | SNB-75 5.52 µM | A498 2.75 µM | MDA-MB-435 2.61 µM

C=CC[C@@]1(OC(C)=O)C(=O)C(=O)OC1C1COC(C)(C)O1 (stereo not given in full)
inactive: UO-31 17.6 µM | OVCAR-4 18.6 µM | DU-145 24.2 µM | PC-3 20.4 µM | 786-0 11.7 µM | UACC-257 16.3 µM | SK-MEL-5 16.6 µM | Malme-3M 17.2 µM | SF-268 19.5 µM | HL-60 10.8 µM | SK-OV-3 42.5 µM | OVCAR-8 20.1 µM | M14 15.7 µM | NCI-H460 17.9 µM | HT-29 19.3 µM | OVCAR-3 17.1 µM | MDA-MB-231 15.8 µM | SNB-75 31.8 µM | A498 21.9 µM | MDA-MB-435 16.8 µM

CN1C(=O)C(C(=O)Nc2ccccn2)C2C[C@@]1(C)Oc1ccccc12 (stereo not given in full)
inactive: UO-31 > 100 µM | OVCAR-4 > 100 µM | DU-145 > 100 µM | PC-3 > 100 µM | 786-0 > 100 µM | UACC-257 > 100 µM | SK-MEL-5 > 100 µM | Malme-3M > 100 µM | SF-268 > 100 µM | HL-60 > 100 µM | SK-OV-3 > 100 µM | OVCAR-8 > 100 µM | M14 > 100 µM | NCI-H460 > 100 µM | HT-29 > 100 µM | OVCAR-3 > 100 µM | MDA-MB-231 > 100 µM | SNB-75 > 100 µM | A498 11.1 µM | MDA-MB-435 > 100 µM

Cn1cnc([N+](=O)[O-])c1[Se]c1nc(N)nc2c1ncn2C1OC(CO)C(O)C1O (stereo not given)
inactive: UO-31 > 100 µM | OVCAR-4 > 100 µM | DU-145 > 100 µM | PC-3 > 100 µM | 786-0 > 100 µM | UACC-257 > 100 µM | SK-MEL-5 > 100 µM | Malme-3M > 100 µM | SF-268 > 100 µM | HL-60 > 100 µM | SK-OV-3 > 100 µM | OVCAR-8 > 100 µM | M14 > 100 µM | NCI-H460 > 100 µM | HT-29 > 100 µM | OVCAR-3 > 100 µM | MDA-MB-231 > 100 µM | SNB-75 > 100 µM | A498 > 100 µM | MDA-MB-435 > 100 µM

COC(=O)c1ccccc1C1CN=NC12Cc1cc(C)cc(C)c1C2=O (stereo not given)
inactive: UO-31 43 µM | OVCAR-4 65.3 µM | DU-145 > 100 µM | PC-3 37.5 µM | 786-0 > 100 µM | UACC-257 34 µM | SK-MEL-5 31.3 µM | Malme-3M 97.9 µM | SF-268 > 100 µM | HL-60 22 µM | SK-OV-3 > 100 µM | OVCAR-8 > 100 µM | M14 67.8 µM | NCI-H460 45.5 µM | HT-29 23.4 µM | OVCAR-3 96.6 µM | MDA-MB-231 14.4 µM | SNB-75 23.1 µM | A498 2.9 µM | MDA-MB-435 36.4 µM

CCN(CC)CC1CCCCN1CC(=O)N1c2ccccc2NC(=O)c2ccccc21 (stereo not given)
inactive: UO-31 23.9 µM | OVCAR-4 > 100 µM | DU-145 > 100 µM | PC-3 > 100 µM | 786-0 > 100 µM | UACC-257 > 100 µM | SK-MEL-5 > 100 µM | Malme-3M > 100 µM | SF-268 > 100 µM | HL-60 > 100 µM | SK-OV-3 > 100 µM | OVCAR-8 > 100 µM | M14 > 100 µM | NCI-H460 > 100 µM | HT-29 > 100 µM | OVCAR-3 > 100 µM | MDA-MB-231 > 100 µM | SNB-75 13.9 µM | A498 > 100 µM | MDA-MB-435 > 100 µM

C=CCN1C(=O)CNC1=S
inactive: UO-31 > 100 µM | OVCAR-4 > 100 µM | DU-145 > 100 µM | PC-3 > 100 µM | 786-0 > 100 µM | UACC-257 > 100 µM | SK-MEL-5 > 100 µM | Malme-3M > 100 µM | SF-268 > 100 µM | HL-60 23.7 µM | SK-OV-3 > 100 µM | OVCAR-8 > 100 µM | M14 > 100 µM | NCI-H460 > 100 µM | HT-29 > 100 µM | OVCAR-3 > 100 µM | MDA-MB-231 > 100 µM | SNB-75 > 100 µM | A498 > 100 µM | MDA-MB-435 > 100 µM

CCOP(=O)(OCC)/C(=C/c1ccccc1)CC(C)=O
inactive: UO-31 > 100 µM | OVCAR-4 > 100 µM | DU-145 > 100 µM | PC-3 > 100 µM | 786-0 > 100 µM | UACC-257 > 100 µM | SK-MEL-5 > 100 µM | Malme-3M > 100 µM | SF-268 > 100 µM | HL-60 22.1 µM | SK-OV-3 > 100 µM | OVCAR-8 > 100 µM | M14 > 100 µM | NCI-H460 > 100 µM | HT-29 > 100 µM | OVCAR-3 > 100 µM | MDA-MB-231 > 100 µM | SNB-75 > 100 µM | A498 > 100 µM | MDA-MB-435 > 100 µM

COc1ccc(-c2nc(SCC(=O)N/N=C/c3ccc(N(C)C)cc3)[nH]c2-c2ccc(OC)cc2)cc1
inactive: UO-31 82.8 µM | OVCAR-4 > 100 µM | DU-145 78.5 µM | PC-3 44.8 µM | 786-0 57.7 µM | UACC-257 > 100 µM | SK-MEL-5 26.8 µM | Malme-3M > 100 µM | SF-268 > 100 µM | HL-60 11.5 µM | SK-OV-3 > 100 µM | OVCAR-8 84.7 µM | M14 35.2 µM | NCI-H460 32.7 µM | HT-29 34.6 µM | OVCAR-3 20.1 µM | MDA-MB-231 > 100 µM | SNB-75 62.8 µM | A498 71.9 µM | MDA-MB-435 74.8 µM

O=C1CCc2c(sc3ncnc(Nc4cccc(Br)c4)c23)C1
inactive: UO-31 1.99 µM | OVCAR-4 2.52 µM | DU-145 3.42 µM | PC-3 3.07 µM | 786-0 4.43 µM | UACC-257 3.55 µM | SK-MEL-5 1.88 µM | Malme-3M 1.76 µM | SF-268 3.92 µM | HL-60 4.32 µM | SK-OV-3 7.52 µM | OVCAR-8 3.26 µM | M14 3.42 µM | NCI-H460 3.99 µM | HT-29 12.1 µM | OVCAR-3 2.51 µM | MDA-MB-231 3.27 µM | SNB-75 3.7 µM | A498 14 µM | MDA-MB-435 1.94 µM
